Laboratory results taken from US12338219B2, “Antimalarial agents” (Merck Sharp & Dohme LLC, priority 2019, dated 2025).

Tested on: parasites (ring stage parasites, parasite growth)
Assay: Parasite LDH growth assay (Parasite Assay), antiparasite potency
Assay type: cell-based
Conditions: 72 hours growth, LDH readout
Experimental: Assessing Antiparasite Potency in a Parasite LDH Growth Assay (Parasite Assay) The parasite stock was maintained at […] in RPMI-Hepes media buffered with sodium bicarbonate and supplemented with […]. […] On the day of assay set up, a blood smear of the parasite culture was Giemsa stained and counted. The parasitemia was adjusted to 0.7% rings and the haematocrit was diluted to 2% in RPMI-Hepes media buffered with sodium bicarbonate and supplemented with 500 heat inactivated human serum and 0.5% albumax. 30 ul of diluted parasites are then added into 10 ul of media+compound in pre-prepared Greiner TC assay plates. Parasite assay plates were placed in gassed humidified boxes in single layer and allowed to incubate at 37° C. for 72 hours. After 72 hours growth, assay plates are sealed with parafilm and frozen flat, in single file at −80° C. overnight. On the following day, assay plates are allowed to thaw at room temperature for 4 hours to which an LDH assay is performed to measure parasite growth.

Row | SMILES | EC50 (Table 3) [nM] | EC50 (72 h, Table 3) [nM] | other results
1 | COCC[C@H]([C@@H]1C[C@H]1C(=O)NC1CC(C)(C(C)C)Oc2ccccc21)N1C(=N)NC(C)(C)CC1=O (single isomer, unassigned) [Example 80C] | 14 | – | –
2 | COCC[C@H]([C@@H]1C[C@H]1C(=O)N[C@@H]1CC(C)(C)Oc2c(C(F)(F)F)ccc(F)c21)N1C(=N)NC(C)(C)CC1=O [Example 114A] | – | 89 | –
3 | COCC[C@H]([C@@H]1C[C@H]1C(=O)NC1CC(C)(C(C)C)Oc2ccccc21)N1C(=N)NC(C)(C)CC1=O (single isomer, unassigned) [Example 80A] | 9.4 | – | –
4 | CCC1(CC)CC(=O)N([C@H](CCOC)[C@@H]2C[C@H]2C(=O)NC2CC(C)(C)Oc3cccc(Cl)c32)C(=N)N1 (some centres unmarked) [Example 149A] | – | – | EC50 (72 h, Table 4 (unit inferred)): 1 nM
5 | CCC1(CC)CC(=O)N(CC2C(C(=O)N[C@H]3C[C@H](C(F)(F)F)Oc4ccccc43)C2(F)F)C(=N)N1 (single isomer, unassigned) [Example 17A] | 47 | – | –
6 | CC1(C)CC(=O)N([C@H](c2cccnc2)[C@@H]2C[C@H]2C(=O)NC2CC(C)(C)Oc3cccc(F)c32)C(=N)N1 (some centres unmarked) [Example 86B] | 2.8 | – | –
7 | CCC1(CC)CC(=O)N(C(CC(C)OC)[C@@H]2C[C@H]2C(=O)N[C@H]2CC(C)(C)Oc3ccccc32)C(=N)N1 (single isomer, unassigned) [Example 142C] | – | – | EC50 (Table 4 (unit inferred)): 205 nM
8 | CC1(C)CC(=O)N([C@H](c2cccnc2)[C@@H]2C[C@H]2C(=O)NC2CC(C)(C)Oc3c(F)cccc32)C(=N)N1 (some centres unmarked) [Example 93B] | 2.4 | – | –
9 | CCC1(CC)CC(=O)N(C[C@@H]2C(C)[C@H]2C(=O)N[C@H]2C[C@H](C(F)(F)F)Oc3ccccc32)C(=N)N1 (some centres unmarked) [Example 28A] | – | 12 | –
10 | COCC[C@H]([C@@H]1C[C@H]1C(=O)NC1CC(C)(C(C)C)Oc2ccccc21)N1C(=N)NC(C)(C)CC1=O (single isomer, unassigned) [Example 80B] | 6.6 | – | –
11 | CC1(C)CC(=O)N(C[C@@H]2C[C@H]2C(=O)NC2CC(C)(C)Oc3ccc(OC(F)(F)F)cc32)C(=N)N1 (some centres unmarked) [Example 125A] | – | 231 | –
12 | CCC1(CC)CC(=O)N(C[C@@H]2C[C@H]2C(=O)N[C@@H](C)c2ccccc2)C(=N)N1 [Example 3B] | – | 151 | –
13 | CC1(C)CC(=O)N(C[C@@H]2C[C@H]2C(=O)N[C@H]2CC(C)(C)Oc3ccc(C(F)(F)F)cc32)C(=N)N1 [Example 100] | – | 170 | –
14 | COCC[C@H]([C@@H]1C[C@H]1C(=O)NC1CC(C)(COC)Oc2ccccc21)N1C(=N)NC(C)(C)CC1=O (single isomer, unassigned) [Example 82D] | 27 | – | –
15 | COCC[C@H]([C@@H]1C[C@H]1C(=O)N[C@@H]1CC(C)(C)Oc2cc(Cl)ccc21)N1C(=N)NC(C)(C)CC1=O [Example 89B] | – | 22 | –
16 | CC1(C)CC(=O)N([C@H](c2cccnc2)[C@H]2[C@H](C(=O)N[C@H]3C[C@H](C(F)(F)F)Oc4ccccc43)C2(C)C)C(=N)N1 [Example 43A] | – | 4 | –
17 | COCC[C@H]([C@@H]1C[C@H]1C(=O)N[C@H]1CC(C)(C)Oc2cccc(OC)c21)N1C(=N)NC(C)(C)CC1=O [Example 74B] | – | 3.1 | –
18 | CC1(C)CC(=O)N([C@H](c2ccc(C#N)cc2)[C@@H]2C[C@H]2C(=O)N[C@H]2CC(C)(C)Oc3ccccc32)C(=N)N1 [Example 45A] | – | 2.8 | –
19 | CC1(C)CC(=O)N([C@H](c2cccnc2)[C@@H]2C[C@H]2C(=O)N[C@H]2CC(C)(C)Oc3cc(Cl)ccc32)C(=N)N1 [Example 91A] | – | 0.8 | –
20 | COCC[C@H]([C@@H]1C[C@H]1C(=O)N[C@@H]1C[C@@H](C(F)(F)F)Oc2ccccc21)N1C(=N)NC(C)(C)CC1=O [Example 24A] | 3.4 | – | –
21 | CCC1(CC)CC(=O)N([C@H](CCOC)[C@@H]2C[C@H]2C(=O)N[C@H]2c3ccccc3OCC2(C)C)C(=N)N1 [Example 19A] | – | 28 | –
22 | CCC1(C)CC(NC(=O)[C@@H]2C[C@H]2[C@@H](CCOC)N2C(=N)NC(C)(C)CC2=O)c2ccccc2O1 (single isomer, unassigned) [Example 75B] | 7.5 | – | –
23 | COCC[C@H]([C@@H]1C[C@H]1C(=O)N[C@H]1CC(C)(C)Oc2ccc(F)cc21)N1C(=N)NC(C)(C)CC1=O [Example 72B] | – | 2.5 | –
24 | COCC[C@H]([C@@H]1C[C@H]1C(=O)N[C@H]1CC(C)(C)Oc2cccc(OC(F)(F)F)c21)N1C(=N)NC(C)(C)CC1=O [Example 107A] | – | 2.1 | –
25 | CCC1(CC)CC(=O)N([C@@H](c2cccnc2)[C@@H]2C(C)[C@H]2C(=O)N[C@H]2CC(C)(C)Oc3ccccc32)C(=N)N1 (some centres unmarked) [Example 56A] | – | 65 | –

Row | SMILES | EC50 (Table 3) [nM] | EC50 (72 h, Table 3) [nM] | other results
26 | CC1(C)CC(=O)N([C@H](c2cccnc2)[C@@H]2C[C@H]2C(=O)NC2CC(C)(C)Oc3cc(F)ccc32)C(=N)N1 (some centres unmarked) [Example 77B] | 2.3 | – | –
27 | CCC1(CC)CC(=O)N(CC2C(C(=O)N[C@H]3CCOc4ccccc43)C2(F)F)C(=N)N1 (some centres unmarked) [Example 15B] | 230 | – | –
28 | CCC1(CC)CC(=O)N(C[C@@H]2C(C)[C@H]2C(=O)N[C@@H]2c3ccccc3OC(C)(C)[C@H]2O)C(=N)N1 (single isomer, unassigned) [Example 30A] | 45 | – | –
29 | COCC[C@H]([C@@H]1C[C@H]1C(=O)N[C@H]1CC(C)(C)Oc2cccc(Cl)c21)N1C(=N)NC(C)(C)CC1=O [Example 116A] | – | 0.8 | –
30 | CCC1(CC)CC(=O)N([C@H](c2cccnc2)[C@H]2[C@H](C(=O)N[C@H]3C[C@H](C(F)(F)F)Oc4ccccc43)C2(C)C)C(=N)N1 [Example 44B] | – | 0.9 | –
31 | CCC1(CC)CC(=O)N([C@H](CCOC)[C@@H]2C[C@H]2C(=O)N[C@@H]2c3ccccc3C[C@H]2O)C(=N)N1 [Example 13] | – | 24 | –
32 | CC1[C@@H](C(c2cccnc2)N2C(=N)NC(C)(C)CC2=O)[C@@H]1C(=O)N[C@H]1C[C@H](C(F)(F)F)Oc2ccccc21 (single isomer, unassigned) [Example 54B] | 130 | – | –
33 | COCC[C@H]([C@@H]1C[C@H]1C(=O)N[C@H]1CC(C)(C)Oc2ccc(Cl)cc21)N1C(=N)NC(C)(C)CC1=O [Example 101] | – | 2.9 | –
34 | CC1(C)CC(=O)N(C(c2cccc(C#N)c2)[C@@H]2C[C@H]2C(=O)NC2CC(C)(C)Oc3ccc(F)cc32)C(=N)N1 (some centres unmarked) [Example 53B] | 2.1 | – | –
35 | CCC1(CC)CC(=O)N([C@H](CCOC)[C@@H]2C[C@H]2C(=O)N[C@H]2CC(C)(C)Oc3ccccc32)C(=N)N1 [Example 1A] | – | 1 | –
36 | CC(C)C1(C)CC(NC(=O)[C@@H]2C[C@H]2[C@@H](c2cccnc2)N2C(=N)NC(C)(C)CC2=O)c2ccccc2O1 (single isomer, unassigned) [Example 81B] | 1 | – | –
37 | COCC[C@H]([C@@H]1C[C@H]1C(=O)N[C@H]1CC(C)(C)Oc2cccc(F)c21)N1C(=N)NC(C)(C)CC1=O [Example 88A] | – | 5.2 | –
38 | CC1(C)CC(=O)N(C[C@@H]2C[C@H]2C(=O)NC2CC(C)(C)Oc3ccc(OC(F)(F)F)cc32)C(=N)N1 (some centres unmarked) [Example 125B] | 160 | – | –
39 | CCC1(CC)CC(=O)N(C[C@H]2C(C(=O)N[C@@H]3c4ccccc4OC(C)(C)[C@H]3O)C2(F)F)C(=N)N1 (some centres unmarked) [Example 18A] | – | 39 | –
40 | COCC[C@H]([C@@H]1C[C@H]1C(=O)NC1CC2(CCC2)Oc2ccccc21)N1C(=N)NC(C)(C)CC1=O (some centres unmarked) [Example 131B] | 6.1 | – | –
41 | COCC[C@H]([C@@H]1C[C@H]1C(=O)NC1CC(C)(C)Oc2ccc(OC(F)(F)F)cc21)N1C(=N)NC(C)(C)CC1=O (some centres unmarked) [Example 126A] | – | 4.7 | –
42 | CC1(C)CC(=O)N([C@H](c2cccnc2)[C@@H]2C[C@H]2C(=O)NC2CC(C)(C)Oc3c(Cl)cc(Cl)cc32)C(=N)N1 (some centres unmarked) [Example 94A] | – | 0.9 | –
43 | CC1C[C@H](NC(=O)[C@@H]2C[C@H]2CN2C(=N)NC(C)(C)CC2=O)c2cc(F)ccc2O1 (some centres unmarked) [Example 139A] | – | 99 | –
44 | COCC[C@H]([C@@H]1C[C@H]1C(=O)NC1CC(C)(C)Oc2ccccc21)N1C(=N)NC(C)(C)CC1=O (some centres unmarked) [Example 23A] | – | 16 | –
45 | CC1(C)CC(=O)N([C@H](c2cccnc2)[C@@H]2C[C@H]2C(=O)NC2CC(C)(C)Oc3ccc(C(F)(F)F)cc32)C(=N)N1 (single isomer, unassigned) [Example 109B] | 1 | – | –
46 | COc1cccc2c1[C@@H](NC(=O)[C@@H]1C[C@H]1CN1C(=N)NC(C)(C)CC1=O)CC(C)(C)O2 [Example 73] | – | 192 | –
47 | CC1(C)CC(=O)N([C@H](c2ccc(C#N)cc2)[C@@H]2C[C@H]2C(=O)N[C@H]2C[C@H](C(F)(F)F)Oc3ccccc32)C(=N)N1 [Example 47B] | – | 0.9 | –
48 | CC1(C)CC(=O)N([C@@H](c2cccnc2)[C@H]2[C@H](C(=O)N[C@H]3C[C@H](C(F)(F)F)Oc4ccccc43)C2(C)C)C(=N)N1 [Example 43B] | – | 37 | –
49 | CCC1(CC)CC(=O)N(C[C@@H]2C(C)[C@H]2C(=O)N[C@@H]2c3ccccc3C[C@H]2O)C(=N)N1 (some centres unmarked) [Example 33] | – | 76 | –
50 | CC(C)C1(C)CC(NC(=O)[C@@H]2C[C@H]2[C@@H](c2cccnc2)N2C(=N)NC(C)(C)CC2=O)c2ccccc2O1 (single isomer, unassigned) [Example 81A] | 2.7 | – | –
